Measurements published in patent US7285572B2, “CaSR antagonist” (Japan Tobacco Inc., priority 2003, dated 2007).

Tests used:
PTH secretion [1] = assay: Reproductive test of NPS-2143 of the reference (PTH secretion); type: in vivo
PTH release = conditions: cited from earlier work
[2] = tested on: osteoblast and osteoclast; conditions: in vitro; cited from earlier work
human calcium receptor = molecular target: T1, human calcium receptor (Homo sapiens, UniProt P41180); assay: Evaluation of antagonistic action on calcium receptor using reporter gene (luciferase); type: cell-based; conditions: rat adrenal derived cells with luciferase and human calcium receptor cDNA, 5 mM calcium chloride, 4 hrs; read-out: IC50 (concentration showing 50% inhibitory rate of luciferase activity)
T1 construct: expressed in transfected cells; host or cells: cell strain derived from rat adrenal, co-transfected with luciferase cDNA
T1 sequence (P41180 20-1078): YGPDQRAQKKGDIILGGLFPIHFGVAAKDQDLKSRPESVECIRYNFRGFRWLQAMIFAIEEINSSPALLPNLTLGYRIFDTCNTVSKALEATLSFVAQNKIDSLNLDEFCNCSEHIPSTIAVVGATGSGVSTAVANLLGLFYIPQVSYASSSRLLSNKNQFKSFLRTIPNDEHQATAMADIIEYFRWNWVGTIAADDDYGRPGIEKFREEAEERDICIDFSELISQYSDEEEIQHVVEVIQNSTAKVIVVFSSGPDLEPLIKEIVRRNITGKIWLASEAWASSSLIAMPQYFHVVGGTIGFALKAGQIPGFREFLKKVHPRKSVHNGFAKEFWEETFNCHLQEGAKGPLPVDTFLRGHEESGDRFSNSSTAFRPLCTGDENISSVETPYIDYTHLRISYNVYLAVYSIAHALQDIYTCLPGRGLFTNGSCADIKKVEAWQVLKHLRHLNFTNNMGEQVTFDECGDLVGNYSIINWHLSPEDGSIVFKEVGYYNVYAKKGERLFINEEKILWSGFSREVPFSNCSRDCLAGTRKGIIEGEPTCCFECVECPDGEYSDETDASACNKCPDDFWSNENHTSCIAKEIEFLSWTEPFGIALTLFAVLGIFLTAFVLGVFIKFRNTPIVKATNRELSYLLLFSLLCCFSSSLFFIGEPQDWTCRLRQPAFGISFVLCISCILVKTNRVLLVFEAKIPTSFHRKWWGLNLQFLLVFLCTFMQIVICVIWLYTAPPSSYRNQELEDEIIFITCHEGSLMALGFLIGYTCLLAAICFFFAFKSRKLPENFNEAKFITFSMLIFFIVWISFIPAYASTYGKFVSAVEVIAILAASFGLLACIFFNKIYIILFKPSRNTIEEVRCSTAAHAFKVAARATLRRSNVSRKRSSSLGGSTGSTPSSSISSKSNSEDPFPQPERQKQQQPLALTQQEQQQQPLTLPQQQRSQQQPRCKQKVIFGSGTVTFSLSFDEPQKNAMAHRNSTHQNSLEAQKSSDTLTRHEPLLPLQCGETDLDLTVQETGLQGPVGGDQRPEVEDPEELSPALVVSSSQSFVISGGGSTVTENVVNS
Method: Evaluation of Antagonistic Action on Calcium Receptor Using Reporter Gene
Luciferase cDNA and human calcium receptor cDNA were introduced into a cell strain derived from rat adrenal to transform the cells, and the transformed cells were cultured in a medium (80 μl, F12 medium containing 0.5% dialyzed horse serum and 0.25% dialyzed bovine fetal serum). A dimethyl sulfoxide solution containing a test compound at 0.1-10000 μM was diluted 100-fold with the medium and added to the test compound group at 10 μl per well (final concentration of dimethyl sulfoxide is 0.1%). In the same manner as in test compound group, dimethyl sulfoxide diluted 100-fold with medium was added to a control group and a blank group. Then, 50 mM calcium chloride-containing medium was added to every well except the blank group at 10 μl per well (final concentration is 5 mM). A medium alone was added to the blank group. After culture for 4 hrs, luciferase substrate was added and the luciferase activity was measured with a photoluminometer. The inhibitory rate (%) was calculated from the obtained measured values according to the following formula.
Based on the results, the concentration (IC50) showing 50% inhibitory rate was determined.

CYP2D6 = molecular target: T2, CYP2D6 (Homo sapiens, UniProt P10635); assay: Metabolic enzyme CYP2D6 inhibitory activity (BD Bioscience kit); type: in vitro ADME; conditions: enzyme activity free of test compound as 100%; read-out: CYP2D6 IC50 (concentration showing 50% inhibition)
T2 construct: purchased BD Bioscience
T2 sequence (P10635 whole entry): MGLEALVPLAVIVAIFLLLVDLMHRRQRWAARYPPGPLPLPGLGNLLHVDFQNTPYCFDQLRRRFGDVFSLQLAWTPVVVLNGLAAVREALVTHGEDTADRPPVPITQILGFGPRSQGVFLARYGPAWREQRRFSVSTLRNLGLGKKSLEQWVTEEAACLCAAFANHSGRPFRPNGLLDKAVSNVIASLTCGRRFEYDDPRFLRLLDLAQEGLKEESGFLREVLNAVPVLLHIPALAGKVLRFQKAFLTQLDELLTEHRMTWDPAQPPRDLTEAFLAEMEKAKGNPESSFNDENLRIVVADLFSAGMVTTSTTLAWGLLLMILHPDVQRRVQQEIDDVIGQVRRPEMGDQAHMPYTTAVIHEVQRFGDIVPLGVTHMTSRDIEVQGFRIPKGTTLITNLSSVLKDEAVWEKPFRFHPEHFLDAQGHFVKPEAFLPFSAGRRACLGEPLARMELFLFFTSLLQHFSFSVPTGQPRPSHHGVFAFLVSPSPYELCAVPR
Method: Metabolic Enzyme CYP2D6 Inhibitory Activity
Using a metabolic enzyme CYP2D6 inhibition measurement kit (BD Bioscience) and following the manual of the kit, the inhibitory activity of the test compound was measured. With the enzyme activity free of the test compound as 100%, the concentration (IC50) showing 50% inhibition was determined. The results are shown in Table 8, wherein “>10” means over 10 μM.

PTH secretion [3] = assay: PTH secretagogue action, oral administration to fasted male SD rats, serum PTH by ELISA; type: in vivo, rat; conditions: 3 mg/kg oral, test compound administration group
Method: The test compound was orally administered to 5 to 9-week-old male SD rats (Charles River Japan, Inc.) fasted for 20 hr, using a solvent (0.5% aqueous methyl cellulose solution) at a dose of 3 mg/5 ml/kg or 30 mg/5 ml/kg. A solvent alone was orally administered to the control group at a dose of 5 ml/kg. The blood was drawn from the tail vein 15 min, 30 min, 60 min and 120 min after the administration of the test compound, and serum was obtained. The serum PTH concentration was measured using rat PTH ELISA kit (Amersham Biosciences).

| Structure (SMILES) | PTH secretion promoting action (duration) (PTH secretion [1]) | blood concentration of NPS-2143 8 hours after the administration (PTH release; 100 μmol/kg, OVX rat) | blood concentration of NPS-2143 24 hours later (PTH release; 100 μmol/kg, OVX rat) [ng/mL] | blood PTH concentration 4 hours later (PTH release; NPS-2143 100 μmol/kg, OVX rat) | blood PTH concentration in 30 minutes (PTH release; NPS-2143 100 μmol/kg, OVX rat) | bone decrease or bone increase (PTH release; oral, OVX rats) | release of PTH (PTH release; oral, OVX rats) | direct effect on osteoblast and osteoclast [2] | IC50 (human calcium receptor) [nM] | IC50 (CYP2D6) [nM] | serum PTH concentration 15 min later (PTH secretion [3]) [pg/mL] | serum PTH concentration 30 min later (PTH secretion [3]) [pg/mL] |
| --- | --- | --- | --- | --- | --- | --- | --- | --- | --- | --- | --- | --- |
| CC(C)(Cc1ccc2ccccc2c1)NC[C@@H](O)COc1cccc(Cl)c1C#N [NPS-2143] | sustained PTH secretion promoting action | not less than 100 ng/ml | ≤ 10 | about 140 pg/ml | about 115 pg/ml | free of bone decrease or bone increase | significantly promotes release of PTH | did not show any direct effect | – | – | – | – |
| C[C@@H](OC[C@H](O)CNC(C)(C)Cc1ccc2ccccc2c1)c1ccccc1-c1ccc(P(=O)(O)O)cc1 [Example 12, Disodium [2′-[(1R)-1-[(2R)-2-hydroxy-3-[[2-methyl-1-(naphthalen-2-yl)propan-2-yl]amino]propoxy]ethyl]biphenyl-4-yl]phosphonate] | – | – | – | – | – | – | – | – | 29 | > 10000 | – | – |
| C[C@@H](OC[C@H](O)CNC(C)(C)Cc1ccc2ccccc2c1)c1ccccc1CCC(=O)O [Example 1, 3-[2-[(1R)-1-[(2R)-2-hydroxy-3-[[2-methyl-1-(naphthalen-2-yl)propan-2-yl]amino]propoxy]ethyl]phenyl]propionic acid] | – | – | – | – | – | – | – | – | 25 | 9500 | 24.86 ± 3.59 | 18.58 ± 2.15 |
